Molecular target: Receptor-type tyrosine-protein kinase FLT3 (Homo sapiens) (UniProt P36888)
Test: inhibition of human FLT3 receptor tyrosine kinase – biochemical, Z'-LYTE, FRET, protease-coupled, direct format, dose response (AID 1671268)
Conditions: recombinant FLT3, Z'-LYTE FRET peptide phosphorylation

Receptor-type tyrosine-protein kinase FLT3 (Homo sapiens), sequence (P36888 whole entry, looked up): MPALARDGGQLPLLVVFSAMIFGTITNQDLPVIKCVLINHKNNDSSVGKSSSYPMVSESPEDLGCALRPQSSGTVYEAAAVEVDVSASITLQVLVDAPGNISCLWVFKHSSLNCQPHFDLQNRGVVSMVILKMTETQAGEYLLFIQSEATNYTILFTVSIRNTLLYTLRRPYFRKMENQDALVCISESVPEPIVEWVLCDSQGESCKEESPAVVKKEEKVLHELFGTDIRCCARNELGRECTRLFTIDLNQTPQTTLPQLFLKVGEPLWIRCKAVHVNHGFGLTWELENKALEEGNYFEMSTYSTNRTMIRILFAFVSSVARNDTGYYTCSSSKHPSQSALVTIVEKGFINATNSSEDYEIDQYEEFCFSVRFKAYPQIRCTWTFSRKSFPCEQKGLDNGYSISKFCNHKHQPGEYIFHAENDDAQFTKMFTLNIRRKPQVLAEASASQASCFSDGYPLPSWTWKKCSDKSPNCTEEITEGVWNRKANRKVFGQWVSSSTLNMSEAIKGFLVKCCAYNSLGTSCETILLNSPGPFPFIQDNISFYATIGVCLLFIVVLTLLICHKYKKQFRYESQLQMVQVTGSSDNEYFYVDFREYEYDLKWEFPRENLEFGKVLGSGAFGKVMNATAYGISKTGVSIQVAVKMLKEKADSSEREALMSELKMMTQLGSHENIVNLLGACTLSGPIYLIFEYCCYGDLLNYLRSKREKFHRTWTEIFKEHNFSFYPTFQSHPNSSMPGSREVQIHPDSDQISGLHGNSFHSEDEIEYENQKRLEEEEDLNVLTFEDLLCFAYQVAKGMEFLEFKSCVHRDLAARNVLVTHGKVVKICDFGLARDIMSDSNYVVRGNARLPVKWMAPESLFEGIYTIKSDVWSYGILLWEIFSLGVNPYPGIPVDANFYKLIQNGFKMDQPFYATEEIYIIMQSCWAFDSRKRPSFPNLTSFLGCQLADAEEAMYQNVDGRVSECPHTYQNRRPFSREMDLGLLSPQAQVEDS

IC50: 2.94 µM
Compound: COc1cc2ncnc(Nc3cccc(Cl)c3)c2cc1OC

From PubChem BioAssay AID1671268
